# Measured values from patent publication US20140080847A1, “Compositions and Methods for Affecting Energy Balance, Body Composition, Fitness, and Well-Being” (OEJM Products Holdings, LLC, priority 2012, published 2014).
# Legend:
# human(s) = experiment: Comparative effects of 1,3-DMPA and 1,4-DMPA compounds in humans (self-administration); format: in vivo
# Procedure: The compounds 1,3-DMPA, racemic 1,4-DMPA, (R)-1,4-DMPA, and (S)-1,4-DMPA were administered to human(s). A non-smoking person of normal weight ingested 40 mg 1,3-DMPA as part of a dietary supplement (dietary ingredients: arginine α-ketoglutarate, creatine monohydrate, β-alanine, caffeine, 1,3-dimethylpentylamine HCL, schisandra cinensis (berry) extract (standardized for schizandrol A)); powder form), self-administered daily for at least seven days. […] To compare the effects of 1,3-DMPA to the effects of 1,4-DMPA, this individual later ingested 1,4-DMPA (racemic) for at least seven days at a dose of 60 mg per day, combined with 250 mg caffeine.
# To compare the effects of (R)-1,4-DMPA, and (S)-1,4-DMPA, the individual described above ingested each enantiomer separately. Starting dose was ˜20 mg per day, which was increased to 30 mg per day if treatment was continued. Doses were combined with 250 mg caffeine as described above. […] The dose was increased to 30 mg per day; the total duration of treatment was at least three weeks. […] Ingestion of (S)-1,4-DMPA (25-30 mg per day) with caffeine produced different effects. […] The individual ceased self-administering (S)-1,4-DMPA after several days of experiencing the latter effects.
# cats and dogs = details: early animal studies; cited from earlier work
# [1] = Acute toxicity and tolerance (MTD) of a single oral dose in New Zealand white rabbits; format: in vivo, rabbit; details: both sexes, New Zealand white, in vivo; rabbit, single oral dose
# Procedure: (§1) The maximum tolerated dose (MTD) of orally administered 1,3-DMPA and 1,4-DMPA was determined in New Zealand white rabbits and Wistar rats.
# (§2) Determination of MTD of orally-administered 1,3-DMPA in New Zealand white rabbits: Twenty-four rabbits (twelve male, twelve female) were quarantined for at least seven days and then were randomly divided into four groups with six animals (3 male and 3 female) in each group. […] Animals were observed daily for fourteen days following administration. Each animal's body weight, food intake, mortality, and natural orifices were monitored. Clinical observations included skin condition, gait, movement, neurological disorders, eye condition, feces, convulsions, tremors, activity rate, restlessness, grooming, sleep, aggressiveness, salivation, diarrhea, respiration, appetite, thirst and urine conditions. Other observations included fur condition, mucous membranes, presence or absence of secretions and excretions and autonomic activity, lacrimation, piloerection, pupil size, posture, arched back, distended abdomen, fur, mucous membrane, presence or absence of secretions, tail elevation, motor activity, urination and defecation, and response to handling as well as the presence of clonic or tonic movements, repetitive circling, bizarre behavior, self-mutilation and walking backwards. At the conclusion of the fourteen day monitoring period, gross pathological examination was carried out on all animals. Heart, lung, liver, kidneys, spleen, stomach, large intestine, small intestine, brain and skin were examined for any macroscopic lesions.
# (§3) Determination of MTD of orally-administered 1,4-DMPA in New Zealand white rabbits: Thirty rabbits (fifteen male, fifteen female) were quarantined for at least seven days and then were randomly divided into five groups with six animals (3 male and 3 female) in each group. […] Animals were observed daily for fourteen days following administration. Each animal's body weight, food intake, mortality, and natural orifices were monitored. As above, clinical observations included observation of natural orifices for any abnormal secretions and monitoring for the presence or absence of secretions and excretions, monitoring of mucous membranes, fur and skin condition, mortality, gait, posture, arched back, distended abdomen, movement and motor activity, neurological disorders, eye condition and pupil size, feces, convulsions, tremors, tail elevation, activity rate, restlessness, grooming, sleep, aggressiveness, salivation, diarrhea, respiration, appetite, thirst and urine conditions, autonomic activity, lacrimation, piloerection, response to handling, as well as the presence of clonic or tonic movements, repetitive circling, bizarre behavior, self-mutilation and walking backwards. At the conclusion of the fourteen day monitoring period, gross pathological examination was carried out on all animals. Heart, lung, liver, kidneys, spleen, stomach, large intestine, small intestine, brain and skin were examined for any macroscopic lesions.
# [2] = test system: New Zealand white rabbits; experiment: as above; format: in vivo, rabbit
# Procedure: as §1, §2, §3
# Wistar rats = experiment: Acute toxicity and tolerance (MTD) of a single oral dose in Wistar rats; format: in vivo, rat
# Procedure: as §1
# (§4) Determination of MTD of orally-administered 1,3-DMPA in Wistar rats: The same general methods and procedures were followed as described above. This study involved forty animals randomly divided into four groups of ten animals (five male, five female) in each group. […] The MTD of a single oral dose of 1,3-DMPA was determined to be between 125 mg/kg and 250 mg/kg.
# as §4, with “1,4-DMPA” for “1,3-DMPA”, “group. The groups were treated as follows: Group I (vehicle control—water), Group II (75 mg/kg), Group III (150 mg/kg), and Group IV (300 mg/kg). […] Gross pathological changes were not observed in the treated groups during necropsy.” for “group.”, “150” for “125”, “300 mg/kg in Wistar rats.” for “250 mg/kg.”
# [3] = as above; format: in vivo, rat; details: both sexes, Wistar, in vivo; rat, single oral dose
# Procedure: as §1, §4
# as §4, with “1,4-DMPA” for “1,3-DMPA”, “group. The groups were treated as follows: Group I (vehicle control—water), Group II (75 mg/kg), Group III (150 mg/kg), and Group IV (300 mg/kg). […] Gross pathological changes were not observed in the treated groups during necropsy.” for “group.”, “150” for “125”, “300 mg/kg in Wistar rats.” for “250 mg/kg.”
# humans = details: cited from earlier work
# [4] = male, 60 mg per day with 250 mg caffeine, at least seven days
# [5] = male, 40 mg daily in a dietary supplement containing caffeine, at least seven days
# [6] = male, 20 then 30 mg per day with 250 mg caffeine, at least three weeks
# [7] = male, starting dose 20 mg per day with 250 mg caffeine
# [8] = male, 25-30 mg per day with caffeine, several days
compound,measurement,setting,value
"CC(C)CCC(C)N (racemic) [1,4-DMPA, 1,4-dimethylpentylamine]",appetite,human(s); [4],decreased appetite
same,"effect on heart rate compared with prior 1,3-DMPA",human(s); [4],reduced effect on heart rate
same,"jitteriness or anxiousness compared with prior 1,3-DMPA",human(s); [4],noticeably reduced feelings of jitteriness or anxiousness
same,"level of CNS stimulation compared with 1,3-DMPA",human(s); [4],about the same level of CNS stimulation
same,mood and vigor,human(s); [4],improved mood and vigor
same,nature of the stimulatory effect,human(s); [4],increased focus and alertness and reduced fatigue
same,physical performance,human(s); [4],improved physical performance
same,fat mass,human(s); reports of individuals ingesting the compound,reduction in fat mass
same,vasopressor activity,cats and dogs,possesses vasopressor activity
same,MTD at 14 days,[1],250 to 350 mg/kg
same,clinical signs,"[2]; rabbit, 250 mg/kg and 350 mg/kg oral, all animals",tremors and tachycardia
same,body weight,"[2]; rabbit, 350 mg/kg oral (Group V), study period",variation in body weight
same,gross pathology of the animal that died,"[2]; rabbit, 350 mg/kg oral, died after 36 hours","dark reddish discoloration of the lung suggesting congestion, slight reddish discoloration of the trachea, and mild petechial hemorrhages in the liver"
same,mortality,"[2]; rabbit, 350 mg/kg oral, six animals per group, within 36 hours",one mortality
same,mortality,"[2]; rabbit, 50, 125, 250 mg/kg oral",No mortalities
same,mean body weight,"[2]; rabbit, 50, 125, 250 mg/kg oral (all groups except Group V), 14 days, vs vehicle control",consistent increase
same,mean food intake,"[2]; rabbit, all treatment groups 50-350 mg/kg, first 48 hours post treatment, vs control",reduced
same,gross pathological changes,"[2]; rabbit, treated groups 50-350 mg/kg, except the animal that died",No gross pathological changes were observed
same,"toxicity and tolerance compared with 1,3-DMPA",[2]; single-dose rat and rabbit studies,"less toxic and better tolerated than 1,3-DMPA"
same,additional clinical signs,"Wistar rats; rat, 150 mg/kg and 300 mg/kg oral",Tremors and convulsions
same,examination of the animals that died,"Wistar rats; rat, 300 mg/kg oral, died 4.5 hours post dosing","right median lobe consolidation and red foci on lungs, mild reddish discoloration of adrenals and spleen, mild enlargement of the spleen and glandular mucosa of the stomach showing hyperemia"
same,mortality,"Wistar rats; rat, 300 mg/kg oral, ten animals per group, within 4.5 hours",Four mortalities
same,mean body weight,"Wistar rats; rat, 75, 150, 300 mg/kg oral, study period, vs control",consistently increased
same,mortality,"Wistar rats; rat, 75 and 150 mg/kg oral",No mortalities
same,clinical signs,"Wistar rats; rat, all treated animals 75, 150, 300 mg/kg oral","piloerection, tail elevation, nasal discharge, tachycardia and hyperactivity"
same,gross pathological changes at necropsy,"Wistar rats; rat, treated groups 75-300 mg/kg oral",not observed
same,feed consumption,"Wistar rats; rat, treatment groups 75, 150, 300 mg/kg oral, first 48 hours post administration",consume less feed
same,LD50 at 14 days,[3],465 mg/kg
same,MTD at 14 days,[3],150 to 300 mg/kg
"CCC(C)CC(C)N (stereo not shown) [1,3-DMPA, 1,3-dimethylpentylamine, reference compound]",vasopressor effects,humans; acute oral administration in humans,vasopressor effects similar to the effects of caffeine
same,glycerol and free fatty acid concentration (markers of lipolysis),"humans; humans, following exercise",increased levels of these markers of lipolysis
same,blood pressure,humans; humans,increase blood pressure to a modest degree
same,heart rate and circulating catecholamines (norepinephrine and epinephrine),humans; humans,no effect on heart rate or on circulating catecholamines
same,norepinephrine levels,humans; humans,no effect on norepinephrine levels
same,CNS stimulation,human(s); [5],"CNS stimulation, including feelings of restlessness and jitteriness"
same,appetite,human(s); [5],decreased appetite
same,heart rate,human(s); [5],increased heart rate
same,mood,human(s); [5],improved mood
same,physical performance during exercise and strength training,human(s); [5],improved physical performance
same,vasopressor activity,cats and dogs,exhibit vasopressor or vasoconstriction activity
same,LD50 at 14 days,[1],324 mg/kg
same,MTD at 14 days,[1],150 to 300 mg/kg
same,gross pathological observations,"[2]; rabbit, 50 mg/kg or 150 mg/kg oral",no changes
same,behavioral observations,"[2]; rabbit, 50 mg/kg oral",did not exhibit any behavioral aberrations
same,clinical signs,"[2]; rabbit, 150 mg/kg oral, a few animals, hours 1-6 after administration",tremors
same,clinical signs,"[2]; rabbit, 300 mg/kg oral","nasal discharge, salivation, tremors, convulsions and tachycardia"
same,gross necropsy of animals that died,"[2]; rabbit, 300 mg/kg oral","reddish discoloration in the lungs, multiple watery cyst on the right median lobe of the liver and focal white patches"
same,mortality,"[2]; rabbit, 300 mg/kg oral, six animals per group, within four hours after dosing",four animals in this group died
same,mean body weight,"[2]; rabbit, 50, 150, 300 mg/kg oral, 14-day study period",consistent increase
same,mean food intake,"[2]; rabbit, 50, 150, 300 mg/kg oral, study period",normal
same,food intake,"[2]; rabbit, treatment groups 50-300 mg/kg, first observations following treatment",initial decrease in food intake
same,additional clinical signs,"Wistar rats; rat, 250 mg/kg oral",tremors
same,food intake,"Wistar rats; rat, 250 mg/kg oral",decreased food intake on Day 3
same,necropsy analysis,"Wistar rats; rat, 250 mg/kg oral, preterminal mortality","hyperemia in the stomach glandular mucosa; congestion of lungs, liver and adrenals; the presence of blood clots in the cranial cavity; and ballooning of the small intestine with reddish yellow fluid"
same,mortality,"Wistar rats; rat, 250 mg/kg oral, ten animals per group, within 26 hours of dosing",One preterminal mortality
same,mean body weight,"Wistar rats; rat, 50, 125, 250 mg/kg oral, all treatment groups",consistent increase
same,mean food intake,"Wistar rats; rat, 50 and 125 mg/kg oral",normal
same,mortality,"Wistar rats; rat, 50 and 125 mg/kg oral (lower dose groups)",no mortalities
same,clinical signs,"Wistar rats; rat, all treatment groups 50, 125, 250 mg/kg oral","piloerection, tail elevation, nasal discharge and hyperactivity"
same,LD50 at 14 days,[3],482 mg/kg
same,MTD at 14 days,[3],125 to 250 mg/kg
"CC(C)CC[C@@H](C)N [(R)-1,4-DMPA, (R)-1,4-dimethylpentylamine]",CNS stimulation,human(s); [6],"CNS stimulation, including feelings of alertness, focus, and reduced fatigue"
same,appetite,human(s); [6],decreased appetite
same,"heart rate, jitteriness, nervousness, anxiety",human(s); [6],"not associated with a noticeable increase in heart rate, jitteriness, nervousness, or anxiety"
same,mood,human(s); [6],improved mood
same,physical performance,human(s); [6],improved physical performance
same,CNS stimulant effect,human(s); [7],produced CNS stimulant effect
same,jitteriness or pressor effect,human(s); [7],little or no jitteriness or pressor effect
"CC(C)CC[C@H](C)N [(S)-1,4-DMPA, (S)-1,4-dimethylpentylamine]","alertness and focus in comparison to (R)-1,4-DMPA",human(s); [8],lessened alertness and focus
same,"heart rate and restlessness in comparison to (R)-1,4-DMPA",human(s); [8],increased heart rate and restlessness
